Reference: patent US11952584B2, “Functional peptides having antimicrobial activity against phytopathogenic microorganisms” (TOYOTA JIDOSHA KABUSHIKI KAISHA, priority 2019, dated 2024)
Where “and” joins values, the source holds several entries; their conditions need not be identical. Equal values may be shown once. Read-outs that look alike come from different tables or passages of the source.

Experiments:
Format in all cases: cell-based
Botrytis cinerea = conditions: 25° C., 1 day or 2 days
[1] = test system: Colletotrichum destructivum; conditions: 25° C., 1 day or 2 days
[2] = test system: Colletotrichum orbiculare; conditions: 25° C., 1 day or 2 days
Fusarium oxysporum = test system: Fusarium oxysporum
Pyricularia oryzae = conditions: 25° C., 1 day or 2 days

Row | Substance | Plate antimicrobial activity test Botrytis cinerea (level) (Botrytis cinerea; peptide 1 μM) | Plate antimicrobial activity test Botrytis cinerea (level) (Botrytis cinerea; peptide 10 μM) | Plate antimicrobial activity test Botrytis cinerea (level) (Botrytis cinerea; peptide 100 μM) | Plate antimicrobial activity test Colletotrichum destructivum (level) ([1]; peptide 1 μM) | Plate antimicrobial activity test Colletotrichum destructivum (level) ([1]; peptide 10 μM) | Plate antimicrobial activity test Colletotrichum destructivum (level) ([1]; peptide 100 μM) | Plate antimicrobial activity test Collectotrichum orbiculare (level) ([2]; peptide 1 μM) | Plate antimicrobial activity test Collectotrichum orbiculare (level) ([2]; peptide 10 μM) | Plate antimicrobial activity test Collectotrichum orbiculare (level) ([2]; peptide 100 μM) | Plate antimicrobial activity test Fusarium oxysporum (level) (Fusarium oxysporum) | Plate antimicrobial activity test Pyricularia oryzae (level) (Pyricularia oryzae; peptide 1 μM) | Plate antimicrobial activity test Pyricularia oryzae (level) (Pyricularia oryzae; peptide 10 μM) | Plate antimicrobial activity test Pyricularia oryzae (level) (Pyricularia oryzae; peptide 100 μM)
1 | SERTR (listed as Solanum lycopersicum) [TsORF18-2-5aa-8] | 0 | 0 | 0 | 0 | 0 | 0 | 0 | 0 | 0 | 0 | 0 | 0 | 0
2 | YYGFP (listed as Solanum lycopersicum) [TsORF18-2-5aa-1] | 0 | 0 | 0 | 0 | 0 | 0 | 0 | 0 | 0 | 0 | 0 | 0 | 0
3 | TRKFW (listed as Solanum lycopersicum) [TsORF18-2-5aa-11] | 0 | 0 | 0 | 0 | 0 | 0 | 0 | 0 | 0 | 0 | 0 | 0 | 0
4 | GFPAF (listed as Solanum lycopersicum) [TsORF18-2-5aa-3] | 0 | 0 | 0 | 0 | 0 | 0 | 0 | 0 | 0 | 0 | 0 | 0 | 0
5 | WKGKT (listed as Solanum lycopersicum) [TsORF18-2-5aa-18] | 0 | 0 | 0 | 0 | 0 | 0 | 0 | 0 | 0 | 0 | 0 | 0 | 0
6 | AFSER (listed as Solanum lycopersicum) [TsORF18-2-5aa-6] | 0 | 0 | 0 | 0 | 0 | 0 | 0 | 0 | 0 | 0 | 0 | 0 | 0
7 | GFPAFSER (listed as Solanum lycopersicum) [TsORF18-2-8aa-3] | 0 | 0 | 0 | 0 | 0 | 0 | 0 | 0 | 0 | 0 | 0 | 0 | 0
8 | RIWKGKTS (listed as Solanum lycopersicum) [TsORF18-2-8aa-16] | 0 | 0 | 2 | 0 | 0 | 0 | 0 | 0 | 1 | 1 and 0 | 0 | 0 | 0
9 | YGFPA (listed as Solanum lycopersicum) [TsORF18-2-5aa-2] | 0 | 0 | 0 | 0 | 0 | 0 | 0 | 0 | 0 | 0 | 0 | 0 | 0
10 | PAFSE (listed as Solanum lycopersicum) [TsORF18-2-5aa-5] | 0 | 0 | 0 | 0 | 0 | 0 | 0 | 0 | 0 | 0 | 0 | 0 | 0
